Test results: patent publication US10988523B2, “Modified lipidated Relaxin B chain peptides and their therapeutic use” (Sanofi, priority 2018, dated 2021)
*1 amine or outer side, *2 acyl side, *3 side chain or, on linkers, in order; H or OH if unused. Where a SMILES comes first, the peptide text is derived from it. Side-chain parts run from the residue outwards. [ ]: non-standard residue; d: D form. The star is where a group is joined. X3 = CCCCCCCCCCCCCCCC(=O)N[C@@H](CCC(=O)N[C@@H](CCC(=O)N[C@@H](CCC(=O)N[C@@H](CCC(=O)NCCCC[C@H](NC(=O)CCC(=O)NCCCOCCOCCOCCCNC(=O)CCC(=O)NCCCOCCOCCOCCCN*)C(N)=O)C(=O)O)C(=O)O)C(=O)O)C(=O)O; γGlu = O=C(O)[C@H](CCC(=O)[*:2])N[*:1]; Stearoyl = CCCCCCCCCCCCCCCCCC(=O)*; Palmitoyl = CCCCCCCCCCCCCCCC(=O)*; Cit = NC(=O)NCCC[C@H](N)C(=O)O; αMeK = C[C@](N)(CCCCN)C(=O)O; Lauroyl = CCCCCCCCCCCC(=O)*; Nle = CCCC[C@H](N)C(=O)O; AEEA = NCCOCCOCC(=O)O; Aib = CC(C)(N)C(=O)O

Biological target: T1, RXFP1 (Homo sapiens, UniProt Q9HBX9)
T1 construct: OVCAR5 cells expressing endogenous RXFP1; endogenous in cells; host or cells: OVCAR5 cells
T1 sequence (Q9HBX9 1-757): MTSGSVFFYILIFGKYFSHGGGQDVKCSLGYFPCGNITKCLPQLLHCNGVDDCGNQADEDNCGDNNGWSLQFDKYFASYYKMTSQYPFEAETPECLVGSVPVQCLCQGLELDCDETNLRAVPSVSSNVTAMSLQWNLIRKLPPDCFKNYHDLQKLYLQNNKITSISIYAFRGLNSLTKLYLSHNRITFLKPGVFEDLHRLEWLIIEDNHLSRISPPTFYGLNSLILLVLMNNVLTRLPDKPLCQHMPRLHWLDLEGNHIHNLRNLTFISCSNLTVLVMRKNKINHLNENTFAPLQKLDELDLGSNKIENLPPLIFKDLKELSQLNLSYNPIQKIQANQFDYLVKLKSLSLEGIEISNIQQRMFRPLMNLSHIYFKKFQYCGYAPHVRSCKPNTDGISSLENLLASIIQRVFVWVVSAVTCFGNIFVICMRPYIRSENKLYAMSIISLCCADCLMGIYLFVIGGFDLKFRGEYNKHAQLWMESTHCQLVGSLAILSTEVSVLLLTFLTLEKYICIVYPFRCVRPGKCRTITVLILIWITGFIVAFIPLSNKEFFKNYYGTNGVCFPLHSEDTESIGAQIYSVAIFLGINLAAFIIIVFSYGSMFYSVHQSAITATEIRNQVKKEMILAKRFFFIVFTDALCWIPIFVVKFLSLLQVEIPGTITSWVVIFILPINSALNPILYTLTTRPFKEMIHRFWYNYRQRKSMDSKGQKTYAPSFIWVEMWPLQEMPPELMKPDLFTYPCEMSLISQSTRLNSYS
Test: OVCAR5 cAMP assay (HTRF), RXFP1 agonist activity
Assay type: cell-based
Details: for EC50: OVCAR5 cells, cAMP HTRF, read-out: EC50 (nM), OVCAR 5 cells (cAMP); for Emax: OVCAR-5, maximal cAMP relative to H2-relaxin maximum (100%), read-out: EMax, OVCAR 5 cells (cAMP)
How it was run: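 cAMP accumulation readout: after 1 mM IBMX for 40 min, endogenous-RXFP1 OVCAR5 cells got rising peptide concentrations without FCS, 30 min, 37° C, then lysis with HTRF cAMP reagents. Nonlinear regression gave EC50; Emax expressed relative to H2-relaxin maximum, same occasion.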

Compound | EC50 [nM] | Emax [%]
CCCCCCCCCCCCCCCC(=O)N[C@@H](CCC(=O)N[C@@H](CCC(=O)N[C@@H](CCC(=O)N[C@@H](CCC(=O)NCCCC[C@H](NC(=O)CCC(=O)NCCCOCCOCCOCCCNC(=O)CCC(=O)NCCCOCCOCCOCCCNC(=O)[C@H](CCCCNC(C)=O)NC(=O)[C@H](CCCCN)NC(=O)[C@H](CCCNC(=N)N)NC(=O)[C@](C)(CCCCN)NC(=O)[C@H](CO)NC(=O)[C@H](Cc1ccccc1)NC(=O)[C@@H](NC(=O)[C@H](CO)NC(=O)[C@H](CCCC)NC(=O)CNC(=O)[C@H](CCC(=O)O)NC(=O)C(C)(C)NC(=O)C(C)(C)NC(=O)[C@@H](NC(=O)[C@H](CCCCNC(C)=O)NC(=O)[C@H](C)NC(=O)[C@H](CCCNC(=N)N)NC(=O)[C@@H](NC(=O)[C@H](CCCCN)NC(=O)[C@H](CCC(=O)O)NC(=O)[C@H](CCCNC(=N)N)NC(=O)CNC(=O)[C@H](CCC(=O)O)NC(=O)[C@H](CC(C)C)NC(C)=O)C(C)C)[C@@H](C)CC)[C@@H](C)O)C(N)=O)C(=O)O)C(=O)O)C(=O)O)C(=O)O [compound 142] (Ac-LEGREKVRAK(Ac)I[Aib][Aib]EG[Nle]STFS[αMeK]RKK(Ac)-X3) | 0.02 | 91
CCCCCCCCCCCCCCCCCC(=O)N[C@@H](CCC(=O)NCCCC[C@H](NC(=O)[C@H](CCCCN)NC(=O)[C@H](CCCNC(=N)N)NC(=O)C(C)(C)NC(=O)[C@H](CO)NC(=O)[C@H](Cc1c[nH]c2ccccc12)NC(=O)[C@@H](NC(=O)[C@H](CO)NC(=O)[C@H](CCCC)NC(=O)CNC(=O)[C@H](CCC(=O)O)NC(=O)C(C)(C)NC(=O)C(C)(C)NC(=O)[C@@H](NC(=O)[C@H](CCC(N)=O)NC(=O)[C@H](C)NC(=O)[C@H](CCCNC(=N)N)NC(=O)[C@@H](NC(=O)[C@H](CCCCN)NC(=O)[C@H](CCC(=O)O)NC(=O)[C@H](CCCNC(=N)N)NC(=O)CNC(=O)[C@H](CCC(=O)O)NC(=O)[C@H](CC(C)C)NC(C)=O)C(C)C)[C@@H](C)CC)[C@@H](C)O)C(N)=O)C(=O)O [compound 3] (Ac-LEGREKVRAQI[Aib][Aib]EG[Nle]STWS[Aib]RKK([γGlu-Stearoyl])-NH2) |  | 93
CCCCCCCCCCCCCCCC(=O)N[C@@H](CCC(=O)N[C@@H](CCC(=O)N[C@@H](CCC(=O)NCCOCCOCC(=O)NCCCC[C@H](NC(=O)COCCOCCNC(=O)[C@H](CCCCN)NC(=O)[C@H](CCCNC(=N)N)NC(=O)C(C)(C)NC(=O)[C@H](CO)NC(=O)[C@H](Cc1c[nH]c2ccccc12)NC(=O)[C@@H](NC(=O)[C@H](CO)NC(=O)[C@H](CCCC)NC(=O)CNC(=O)[C@H](CCC(=O)O)NC(=O)C(C)(C)NC(=O)C(C)(C)NC(=O)[C@@H](NC(=O)[C@H](CCC(N)=O)NC(=O)[C@H](C)NC(=O)[C@H](CCCNC(=N)N)NC(=O)[C@@H](NC(=O)[C@H](CCCCN)NC(=O)[C@H](CCC(=O)O)NC(=O)[C@H](CCCNC(=N)N)NC(=O)CNC(=O)[C@H](CCC(=O)O)NC(=O)[C@H](CC(C)C)NC(C)=O)C(C)C)[C@@H](C)CC)[C@@H](C)O)C(N)=O)C(=O)O)C(=O)O)C(=O)O [compound 12] (Ac-LEGREKVRAQI[Aib][Aib]EG[Nle]STWS[Aib]RK[AEEA]K([AEEA-γGlu-γGlu-γGlu-Palmitoyl])-NH2) | 26.7 | 76
CCCCCCCCCCCCCCCCCC(=O)N[C@@H](CCC(=O)N[C@@H](CCC(=O)N[C@@H](CCC(=O)NCCOCCOCC(=O)NCCOCCOCC(=O)NCCOCCOCC(=O)NCCCC[C@H](NC(=O)[C@H](CCCCNC(C)=O)NC(=O)[C@H](CCCCN)NC(=O)[C@H](CCCNC(N)=O)NC(=O)[C@](C)(CCCCN)NC(=O)[C@H](CO)NC(=O)[C@H](Cc1c[nH]c2ccccc12)NC(=O)[C@@H](NC(=O)[C@H](CO)NC(=O)[C@H](CCCC)NC(=O)CNC(=O)[C@H](CCC(=O)O)NC(=O)C(C)(C)NC(=O)C(C)(C)NC(=O)[C@@H](NC(=O)[C@H](CCCCNC(C)=O)NC(=O)[C@H](C)NC(=O)[C@H](CCCNC(=N)N)NC(=O)[C@@H](NC(=O)[C@H](CCCCN)NC(=O)[C@H](CCC(=O)O)NC(=O)[C@H](CCCNC(=N)N)NC(=O)CNC(=O)[C@H](CCC(=O)O)NC(=O)[C@H](CC(C)C)NC(C)=O)C(C)C)[C@@H](C)CC)[C@@H](C)O)C(N)=O)C(=O)O)C(=O)O)C(=O)O [compound 129] (Ac-LEGREKVRAK(Ac)I[Aib][Aib]EG[Nle]STWS[αMeK][Cit]KK(Ac)K([AEEA-AEEA-AEEA-γGlu-γGlu-γGlu-Stearoyl])-NH2) | 1 | 89
CCCCCCCCCCCCCCCC(=O)N[C@@H](CCC(=O)N[C@@H](CCC(=O)N[C@@H](CCC(=O)NCCCC[C@H](NC(=O)COCCOCCNC(=O)COCCOCCNC(=O)COCCOCCNC(=O)COCCOCCNC(=O)[C@H](CCCCNC(C)=O)NC(=O)[C@H](C)NC(=O)[C@H](CCCNC(=N)N)NC(=O)[C@](C)(CCCCN)NC(=O)[C@H](CO)NC(=O)[C@H](Cc1ccccc1)NC(=O)[C@@H](NC(=O)[C@H](CO)NC(=O)[C@H](CCCC)NC(=O)CNC(=O)[C@H](CCC(=O)O)NC(=O)C(C)(C)NC(=O)C(C)(C)NC(=O)[C@@H](NC(=O)[C@H](CCCCNC(C)=O)NC(=O)[C@H](C)NC(=O)[C@H](CCCNC(=N)N)NC(=O)[C@@H](NC(=O)[C@H](CCCCN)NC(=O)[C@H](CCC(=O)O)NC(=O)[C@H](CCCNC(=N)N)NC(=O)CNC(=O)[C@H](CCC(=O)O)NC(=O)[C@H](CC(C)C)NC(C)=O)C(C)C)[C@@H](C)CC)[C@@H](C)O)C(N)=O)C(=O)O)C(=O)O)C(=O)O [compound 192] (Ac-LEGREKVRAK(Ac)I[Aib][Aib]EG[Nle]STFS[αMeK]RAK(Ac)[AEEA][AEEA][AEEA][AEEA]K([γGlu-γGlu-γGlu-Palmitoyl])-NH2) |  | 91
CCCCCCCCCCCCCCCC(=O)N[C@@H](CCC(=O)N[C@@H](CCC(=O)N[C@@H](CCC(=O)NCCOCCOCC(=O)NCCCC[C@H](NC(=O)[C@H](CCCCN)NC(=O)[C@H](CCCNC(=N)N)NC(=O)C(C)(C)NC(=O)[C@H](CO)NC(=O)[C@H](Cc1c[nH]c2ccccc12)NC(=O)[C@@H](NC(=O)[C@H](CO)NC(=O)[C@H](CCCC)NC(=O)CNC(=O)[C@H](CCC(=O)O)NC(=O)C(C)(C)NC(=O)C(C)(C)NC(=O)[C@@H](NC(=O)[C@H](CCC(N)=O)NC(=O)[C@H](C)NC(=O)[C@H](CCCNC(=N)N)NC(=O)[C@@H](NC(=O)[C@H](CCCCN)NC(=O)[C@H](CCC(=O)O)NC(=O)[C@H](CCCNC(=N)N)NC(=O)CNC(=O)[C@H](CCC(=O)O)NC(=O)[C@H](CC(C)C)NC(C)=O)C(C)C)[C@@H](C)CC)[C@@H](C)O)C(N)=O)C(=O)O)C(=O)O)C(=O)O [compound 55] (Ac-LEGREKVRAQI[Aib][Aib]EG[Nle]STWS[Aib]RKK([AEEA-γGlu-γGlu-γGlu-Palmitoyl])-NH2) |  | 94
CCCCCCCCCCCCCCCCCC(=O)N[C@@H](CCC(=O)N[C@@H](CCC(=O)N[C@@H](CCC(=O)NCCOCCOCC(=O)NCCOCCOCC(=O)NCCCC[C@H](NC(=O)[C@H](CCCCN)NC(=O)[C@H](CCCCN)NC(=O)[C@H](CCCNC(=N)N)NC(=O)C(C)(C)NC(=O)[C@H](CO)NC(=O)[C@H](Cc1c[nH]c2ccccc12)NC(=O)[C@@H](NC(=O)[C@H](CO)NC(=O)[C@H](CCC(=O)O)NC(=O)CNC(=O)[C@H](CCC(=O)O)NC(=O)C(C)(C)NC(=O)C(C)(C)NC(=O)[C@@H](NC(=O)[C@H](CCC(N)=O)NC(=O)[C@H](C)NC(=O)[C@H](CCCNC(=N)N)NC(=O)[C@@H](NC(=O)[C@H](CCCCN)NC(=O)[C@H](CCC(=O)O)NC(=O)[C@H](CCCNC(=N)N)NC(=O)CNC(=O)[C@H](CCC(=O)O)NC(=O)[C@H](CC(C)C)NC(C)=O)C(C)C)[C@@H](C)CC)[C@@H](C)O)C(N)=O)C(=O)O)C(=O)O)C(=O)O [compound 68] (Ac-LEGREKVRAQI[Aib][Aib]EGESTWS[Aib]RKKK([AEEA-AEEA-γGlu-γGlu-γGlu-Stearoyl])-NH2) |  | 94
CCCCCCCCCCCC(=O)N[C@@H](CCC(=O)N[C@@H](CCC(=O)N[C@@H](CCC(=O)NCCOCCOCC(=O)NCCOCCOCC(=O)NCCOCCOCC(=O)NCCCC[C@H](NC(=O)[C@H](CCCCNC(C)=O)NC(=O)[C@H](CCCCN)NC(=O)[C@H](CCCNC(=N)N)NC(=O)C(C)(C)NC(=O)[C@H](CO)NC(=O)[C@H](Cc1c[nH]c2ccccc12)NC(=O)[C@@H](NC(=O)[C@H](CO)NC(=O)[C@H](CCCC)NC(=O)CNC(=O)[C@H](CCC(=O)O)NC(=O)C(C)(C)NC(=O)C(C)(C)NC(=O)[C@@H](NC(=O)[C@H](CCCCNC(C)=O)NC(=O)[C@H](C)NC(=O)[C@H](CCCNC(=N)N)NC(=O)[C@@H](NC(=O)[C@H](CCCCN)NC(=O)[C@H](CCC(=O)O)NC(=O)[C@H](CCCNC(=N)N)NC(=O)CNC(=O)[C@H](CCC(=O)O)NC(=O)[C@H](CC(C)C)NC(C)=O)C(C)C)[C@@H](C)CC)[C@@H](C)O)C(N)=O)C(=O)O)C(=O)O)C(=O)O [compound 120] (Ac-LEGREKVRAK(Ac)I[Aib][Aib]EG[Nle]STWS[Aib]RKK(Ac)K([AEEA-AEEA-AEEA-γGlu-γGlu-γGlu-Lauroyl])-NH2) |  | 92
